# Assays:
# Assay type in all cases: functional, cell-based
# A549 = test: Cytotoxicity against human A549 cells assessed as growth inhibition after 72 hrs by MTT assay; settings: A549, 72 h
# HCT-116 = test: Cytotoxicity against human HCT116 cells assessed as growth inhibition after 72 hrs by MTT assay; settings: HCT-116, 72 h
# BGC-823 = test: Cytotoxicity against human BGC823 cells assessed as growth inhibition after 72 hrs by MTT assay; settings: BGC-823, 72 h
# HepG2 = test: Cytotoxicity against human HepG2 cells assessed as growth inhibition after 72 hrs by MTT assay; settings: HepG2, 72 h
# A2780 = test: Cytotoxicity against human A2780 cells assessed as growth inhibition after 72 hrs by MTT assay; settings: A2780, 72 h
SMILES,IC50 (A549) [µM],IC50 (HCT-116) [µM],IC50 (BGC-823) [µM],IC50 (HepG2) [µM],IC50 (A2780) [µM]
COc1ccc(CN2CCc3ncn(COCc4ccccc4)c3/C(=C/c3ccccc3)C2=O)cc1,46.8,31.1,71.6,44.4,43.1
O=C1/C(=C\c2ccccc2)c2c(ncn2COCc2ccccc2)CCN1Cc1ccc(F)cc1,19.6,11.2,72.9,39.4,24.8
COc1cc(/C=C2\C(=O)N(Cc3ccccc3)CCc3ncn(COCc4ccccc4)c32)cc(OC)c1OC,8.56,8.9,12.9,10,8.97
O=C1/C(=C\c2ccccc2)c2c(ncn2COCc2ccccc2)CCN1Cc1ccc(Cl)cc1,11.8,10.5,75.7,47.9,22.2
O=C1/C(=C\c2ccccc2)c2[nH]cnc2CCN1Cc1ccccc1,51.1,> 100,> 100,> 100,> 100
O=C1/C(=C\c2ccc(C(F)(F)F)cc2)c2c(ncn2COCc2ccccc2)CCN1Cc1ccccc1,52.5,36,42.6,51.4,28.2
CNc1nc2ccn(C)c(=O)c(Cc3cc(Br)c(OC)c(Br)c3)c-2n1 [CERATAMINE A],26.8,12.4,20,7.8,11.2
Cc1ccc(CN2CCc3ncn(COCc4ccccc4)c3/C(=C/c3ccccc3)C2=O)cc1,11.4,7.94,39.1,44.6,21.2
O=C1/C(=C\c2ccccc2)c2c(ncn2COCc2ccccc2)CCN1Cc1ccc2ccccc2c1,26.4,19.4,93.3,23.7,72.8
O=C1/C(=C\c2ccccc2)c2c(ncn2COCc2ccccc2)CCN1Cc1ccc(-c2ccccc2)cc1,18.3,14,81,72.5,48.3
Cc1cc(C)cc(CN2CCc3ncn(COCc4ccccc4)c3/C(=C/c3ccccc3)C2=O)c1,22.5,6.23,52.6,40.9,31.3
Cc1ccccc1CN1CCc2ncn(COCc3ccccc3)c2/C(=C/c2ccccc2)C1=O,25.6,24.7,31.3,53.3,25.2
O=C1/C(=C\c2ccccc2)c2c(ncn2COCc2ccccc2)CCN1Cc1ccccc1,9.9,20,20.4,13.9,20.4
CC(C)(C)c1ccc(CN2CCc3ncn(COCc4ccccc4)c3/C(=C/c3ccccc3)C2=O)cc1,20.6,8.46,27.8,18,23.9
O=C1/C(=C\c2ccncc2)c2c(ncn2COCc2ccccc2)CCN1Cc1ccccc1,36,67.1,> 100,> 100,> 100
Cc1cccc(CN2CCc3ncn(COCc4ccccc4)c3/C(=C/c3ccccc3)C2=O)c1,16.1,3.8,14.6,34.3,26.3

# Reference: ChEMBL document CHEMBL4184278, “Synthesis and cytotoxicity of novel imidazo[4,5-d]azepine compounds derived from marine natural product ceratamine A” (Bioorg Med Chem Lett, 2018)
